What was measured:
Assay in all cases: relative viability (nuclei count vs DMSO), 5 days (fraction); higher = more cells survive
TGX 221 + Luminespib = compound: CC1=CN2C(=O)C=C(N=C2C(=C1)C(C)NC3=CC=CC=C3)N4CCOCC4 [TGX 221] + CCNC(=O)c1noc(-c2cc(C(C)C)c(O)cc2O)c1-c1ccc(CN2CCOCC2)cc1 [Luminespib] (partner 0.01 µM)
Procedure, shortened: (§1)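 Relative viability was taken as the ratio of nuclei in treated wells to nuclei in vehicle wells. Lung cancer cell lines in 1536-well plates received compounds by pin tool one day after seeding, either one drug alone or a fixed anchor-drug dose plus five library-drug doses (not always all listed) in √10 steps. Nuclei were counted on 4× images after 5 days of treatment, and values are medians of duplicate plates.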

[1] = compound: O=C(CCCCCCNC(=O)c1cnc(N(c2ccccc2)c2ccccc2)nc1)NO [Ricolinostat] + CCNC(=O)c1noc(-c2cc(C(C)C)c(O)cc2O)c1-c1ccc(CN2CCOCC2)cc1 [Luminespib] (partner 0.01 µM)
Procedure, shortened: as §1

[2] = compound: O=C(CCCCCCNC(=O)c1cnc(N(c2ccccc2)c2ccccc2)nc1)NO [Ricolinostat] + C[C@@H](Oc1cc(-c2cnn(C3CCNCC3)c2)cnc1N)c1c(Cl)ccc(F)c1Cl [Crizotinib] (partner 1 µM)
Procedure, shortened: as §1

[3] = compound: O=C(CCCCCCNC(=O)c1cnc(N(c2ccccc2)c2ccccc2)nc1)NO [Ricolinostat] + N=C(N)NC(=N)NCCc1ccccc1 [Phenformin] (partner 250 µM)
Procedure, shortened: as §1

Row | Cell Line | relative viability (TGX 221 + Luminespib; first compound 0.08 µM) | relative viability (TGX 221 + Luminespib; first compound 0.253 µM) | relative viability (TGX 221 + Luminespib; first compound 0.8 µM) | relative viability (TGX 221 + Luminespib; first compound 2.53 µM) | relative viability (TGX 221 + Luminespib; first compound 8 µM) | relative viability ([1]; first compound 0.253 µM) | relative viability ([1]; first compound 0.8 µM) | relative viability ([1]; first compound 2.53 µM) | relative viability ([2]; first compound 0.253 µM) | relative viability ([2]; first compound 0.8 µM) | relative viability ([2]; first compound 2.53 µM) | relative viability ([3]; first compound 0.253 µM) | relative viability ([3]; first compound 0.8 µM) | relative viability ([3]; first compound 2.53 µM) | relative viability ([2]; first compound 0.08 µM) | relative viability ([3]; first compound 0.08 µM) | relative viability ([1]; first compound 0.08 µM)
1 | NCI-H322M | 0.735 | 0.802 | 0.776 | 0.812 | 0.644 | 0.974 | 0.988 | 1.09 | 0.913 | 0.818 | 0.751 | 0.839 | 0.767 | 0.761 |  |  | 
2 | NCI-H358 | 0.285 | 0.37 | 0.319 | 0.007 | 0.29 | 0.269 | 0.482 | 0.254 | 0.453 | 0.421 | 0.31 | 0.362 | 0.424 | 0.432 | 0.581 | 0.265 | 
3 | NCI-H441 | 0.554 | 0.307 | 0.364 | 0.312 | 0.278 | 0.376 | 0.328 | 0.373 | 0.625 | 0.615 | 0.633 | 0.956 | 0.889 | 0.643 | 0.587 |  | 
4 | NCI-H460 | 0.0366 | 0.029 | 0.0351 | 0.04 | 0.028 | 0.0237 | 0.0543 | 0.0362 | 0.924 | 0.84 | 0.645 | 0.512 | 0.494 | 0.476 | 1.01 | 0.389 | 0.0274
5 | NCI-H520 | 0.23 | 0.196 | 0.188 | 0.205 | 0.211 | 0.208 | 0.295 | 0.233 | 0.667 | 0.707 | 0.782 | 0.732 | 0.578 | 0.498 |  |  | 
6 | NCI-H596 | 0.992 | 1.02 | 1.04 | 0.881 | 0.935 | 0.83 | 0.881 | 1.1 | 0.963 | 0.977 | 0.959 | 0.749 | 0.7 | 0.694 | 0.967 | 0.836 | 1.12
7 | NCI-H647 | 0.186 | 0.164 | 0.263 | 0.17 | 0.118 | 0.238 | 0.117 | 0.21 | 1.05 | 1.01 | 0.661 | 0.512 | 0.563 | 0.275 | 1.08 | 0.397 | 0.161
8 | NCI-H650 | 0.759 | 0.774 | 0.783 | 0.721 | 0.753 | 0.758 | 0.788 | 0.657 | 0.811 | 0.529 | 0.63 | 0.454 | 0.397 | 0.281 |  | 0.373 | 0.763
9 | NCI-H661 | 0.906 | 0.919 | 0.899 | 0.956 | 0.939 | 0.886 | 0.881 | 0.685 | 0.99 | 0.973 | 0.984 | 0.285 | 0.262 | 0.302 |  | 0.27 | 0.743
10 | NCI-H727 | 0.345 | 0.315 | 0.303 | 0.257 | 0.363 | 0.283 | 0.236 | 0.379 | 0.782 | 0.802 | 0.704 | 0.734 | 0.529 | 0.572 | 0.748 | 0.342 | 0.314
11 | NCI-H838 | 0.219 | 0.335 | 0.296 | 0.344 | 0.266 | 0.291 | 0.289 | 0.169 | 0.896 | 0.899 | 0.731 | 0.689 | 0.64 | 0.571 | 0.672 | 0.48 | 0.254
12 | NCI-H1355 | 0.713 | 0.59 | 0.674 | 0.588 | 0.621 | 0.764 | 0.753 | 0.712 | 1.01 | 0.995 | 1.02 | 0.451 | 0.427 | 0.439 |  | 0.412 | 0.645
13 | NCI-H1437 | 1.09 | 1.11 | 1.16 | 1.1 | 0.929 | 1.08 | 1.12 | 0.92 | 0.931 | 0.918 | 0.765 | 0.561 | 0.292 | 0.23 | 0.825 | 0.23 | 0.984
14 | NCI-H1563 | 0.499 | 0.525 | 0.538 | 0.515 | 0.523 | 0.502 | 0.508 | 0.525 | 0.822 | 0.732 | 0.689 | 0.647 | 0.685 | 0.671 | 0.862 | 0.596 | 0.553
15 | NCI-H1650 | 0.197 | 0.191 | 0.201 | 0.169 | 0.185 | 0.191 | 0.225 | 0.17 | 0.926 | 0.714 | 0.784 | 0.408 | 0.445 | 0.218 | 1.04 | 0.338 | 0.184
16 | NCI-H1651 | 0.828 | 0.653 | 0.741 | 0.592 | 0.568 | 0.891 | 0.852 | 0.914 | 0.84 | 0.88 | 0.816 | 0.352 | 0.311 | 0.365 | 0.843 | 0.318 | 0.712

Source: the supplement of paper PMC10307832
